Experiment [1] concerns forearm skin (aging / photoaging skin). Briefly: Forearm skin thickness measured by micrometer calipers after topical application. The class given is in vivo, human. The note with it: 10% solution twice daily; for appearance of treated forearm skin compared with untreated forearm: at end of treatment (6 to 9 weeks). How it is done:
Skin thickness was measured by micrometer calipers to study skin changes associated with aging as follows: The skin was grasped with a 2×6 cm metal hinge, the internal faces of that were coated with emery cloth to prevent slippage, and manually squeezed to threshold subject discomfort. Combined thickness of two whole-skin layers including thickness of the two hinge leaves was measured with micrometer calipers. Thickness of the two hinge leaves was subtracted to determine the actual thickness of two whole-skin layers. Triplicate measurements on treated sites were done and an average number was used for calculation of the skin thickness. N-Propanoyl-D-glucosamine 10 g was dissolved in 90 ml solution prepared from water 40 parts, ethanol 40 parts and propylene glycol 20 parts by volume. The formulation thus prepared had pH 6.0 and contained 10% N-propanoyl-D-glucosamine solution.

Experiment [2] concerns itchy lesion due to atopic eczema. The experiment is described as follows: Topical treatment of itch from atopic eczema in a human subject. The class given is in vivo. The note with it: 5% cream. How it is done:
For subjective disorders such as pain, itch, or the like, the therapeutic effects were evaluated or judged by the subjects or patients. For example, the subjects evaluated whether the pain or itch had disappeared within hours or days. For other detectable symptoms or syndromes, the therapeutic effects or improvements were evaluated or judged by medical professionals. N-Propanoyl-D-glucosamine 5 g was dissolved in water 15 ml and propylene glycol 5 ml, and the solution thus obtained was mixed uniformly with hydrophilic ointment or oil-in-water emulsion 75 g. The cream thus formulated had pH 4.7 and contained 5% N-propanoyl-D-glucosamine. A subject, having an itchy lesion on their right foot due to atopic eczema, topically applied the above cream to the lesion. […] A human subject having itchy skin from atopic eczema topically applied 5% N-propanoyl-glucosamine cream to the lesion.

The test system of experiment [3] is fine wrinkles (crow's feet). Briefly: Topical treatment of fine wrinkles (crow's feet) near the eyes. In kind it is in vivo, human. Particulars: 5% cream of Example 7, topical twice daily, five weeks, person. On the procedure:
For subjective disorders such as pain, itch, or the like, the therapeutic effects were evaluated or judged by the subjects or patients. For example, the subjects evaluated whether the pain or itch had disappeared within hours or days. For other detectable symptoms or syndromes, the therapeutic effects or improvements were evaluated or judged by medical professionals. A subject, applied topically twice daily 5% N-propanoyl-D-glucosamine cream as formulated in Example 7 to fine wrinkles (crow's feet) near the eyes for five weeks.

Take `CCC(=O)N[C@H]1C(O)O[C@H](CO)[C@@H](O)[C@@H]1O` (stereo partly drawn) [N-propanoyl-D-glucosamine, N-Propanoyl-D-glucosamine]: the “appearance of treated forearm skin compared with untreated forearm” value is “firmer, smooth, plump and minimally wrinkled when lifted” in experiment [1]; “firmer, smooth, plump, minimally wrinkled when lifted” in experiment [1] (listed as N-propanoyl-glucosamine). The “increase in skin thickness” value in experiment [1] (left forearm, person, after 4 weeks) is reported as 8%; in experiment [1] (left forearm, person, after 5 weeks) it was 19%; in experiment [1] (left forearm, person, after 6 weeks), 23%; in experiment [1] (left forearm, person, after 8 weeks), 33%; in experiment [1] (left forearm, person, after 9 weeks), 28%; in experiment [1] (left forearm, subject with photoaging skin, 8 weeks), 33%. Besides, the “increase in skin thickness” value in experiment [1] (right forearm, person, after 4 weeks) came to 13%; in experiment [1] (right forearm, person, after 6 weeks), 27%. Further, the “time skin remained free of itch” value in experiment [2] (single topical application to atopic eczema lesion) is 12 h. Besides, the “itch after topical application” value in experiment [2] (topical to atopic eczema lesion, a few minutes after application) is “the itch disappeared completely”. For the same compound, the change of wrinkles entry in experiment [3] is “wrinkles improved significantly”.

The values are drawn from patent US20090186853A1, “COMPOSITIONS COMPRISING N-PROPANOYL DERIVATIVES OF AMINO ACIDS, AMINOCARBOHYDRATES AND DERIVATIVES THEREOF” (priority 2005, published 2009).
